According to patent publication US20150352134A1, “COMPOSITION FOR TOPICAL SKIN APPLICATION CONTAINING GINSENOSIDE F2 DERIVED FROM HYDROPONIC GINSENG” (AMOREPACIFIC CORPORATION, priority 2012, published 2015):

How the values were obtained:
[1] = test system: B16/F10 melanoma cells; test: Melanogenesis inhibition in B16/F10 melanoma cells; format: cell-based; settings: sample containing 0.001 wt. % of test substance; 3-day cultivation
Description: As a test substance, a sample containing 0.001 wt. % of ginsenoside F2 or kojic acid is added to a culture medium of B16/F10 melanoma cells (available from Korean Cell Line Bank) at a predetermined concentration. The culture medium is eliminated after 3-day cultivation. The cells are washed with PBS and dissolved in 1N NaOH. Then, the absorbance at 405 nm is measured. The control is the cells not treated with any test substance. In comparison with the melanin content in the control group, the inhibitory ability of each test substance against melanogenesis is measured. […] [formula]

[2] = target: T1, elastase type III (Sus scrofa, UniProt P00772); test: Elastase inhibitory effect; format: biochemical; settings: EGCG 250 μM; 25° C., 15 minutes, absorbance 415 nm
T1 construct: purchased Sigma-Aldrich E0127
Description: The elastase inhibitory function of the ginsenoside F2 is measured in comparison with that of EGCG. The elastase and the substrate used herein are purchased from Sigma-Aldrich, U.S.A. (Cat. No. E0127).
The elastase inhibitory function is measured according to the following method.
In a 96-well plate, ginsenoside F2 (200 μL) and 50 μL of a 20 μg/mL elastase type III solution are mixed with a […] tris-HCL buffer solution (pH 8.0). The positive control is EGCG 250 μM, and the negative control which is a non-treated group is distilled water. Then, 100 μL of 0.4514 mg/mL N-succinyl-ala-ala-ala-p-nitroanilide prepared with the buffer solution is added to the mixture and allowed to react at 25° C. for 15 minutes. After completion of the reaction, the absorbance at 415 nm was measured. The blank test is performed in the same manner as described above to achieve calibration verification.
The elastase inhibitory function is calculated according to the following mathematical formula 1, and the results are presented in Table 2.
Elastase inhibition rate (%)={1−(C−D)/(A−B)}×100 [Mathematical Formula 1]
A: Absorbance at 415 nm with enzyme and no test substance.
B: Absorbance at 415 nm with no test substance and no enzyme.
C: Absorbance at 415 nm with test substance and enzyme.
D: Absorbance at 415 nm with test substance and no enzyme.

[3] = test system: mouse with vitiligo (C57b1/6-Mitf^mi-vit); test: Grey hair prevention: melanin in newly grown hair of mouse with vitiligo; format: in vivo; settings: applied twice a day, about 3 weeks, 50 mM IBMX, 2.5% ginsenoside F2
Description: A mouse with vitiligo (C57b1/6-Mitf^mi-vit) is purchased from The Jackson Lab in U.S.A. The testing method on the grey hair inhibitory effect using a mouse with lots of grey hair is carried out as follows. A 12-week old mouse is subjected to depilation on the back side. The area of the depilated region is controlled to be the same to every object. From the next day of the depilation, the grey hair inhibitory substances are applied on the depilated region twice a day. The vehicle for the grey hair inhibitory substances is the mixture of EtOH, 1,3-BG and DW (3:2:5 in volume ratio). The liquid containing the vehicle alone is the negative control, the liquid containing the vehicle in combination with 50 mM IBMX is the positive control, and the liquid containing the vehicle in combination with 2.5% ginsenoside F2 is the test group. When the difference in the grey hair inhibitory effect between the substances is visually recognizable in about 3 weeks, the newly grown hair is collected to measure the quantity of melanin produced in the hair. The quantity of melanin in the hair is measured using esperase (Novozyme) strains that are a protein hydrolase. Esperase is dissolved in a buffer solution (50 mM tris-HCl, 5 mM DTT, pH 9.3) to a concentration of 1 NPU/ml to prepare a reaction buffer. 5 mg of mouse hair is put in 1 ml of the reaction buffer, which is stirred at a speed of 1,000 rpm at 37° C. for 13 hours to cause the reaction and then subjected to a momentary centrifugal isolation to separate the reactant solution from hair. The reactant solution thus obtained is placed in each well of a 96-well plate, and the absorbance at 405 nm is measured to determine the amount of melanin in the reactant solution. When a mouse with vitiligo and lots of grey hair is treated with the negative control substance, the positive control substance, or the test substance, the efficacies are visually observed, and the melanin in hair is quantitatively analyzed.

[4] = test system: potassium ion channels (KATP channels); test: KATP channel opener test: recovery of NIH3T3 proliferation blocked by tolbutamide (WST-1); format: cell-based, mouse; settings: 48 hours
Text: Minoxidil, a treatment for hair loss, is known as a potassium ion channel opener (KATP channel opener) potentially acting on mitochondria and a representative drug used for treatment of androgenic alopecia (hair loss). A testing method used to evaluate the action of minoxidil includes treating with tolbutamide (SIGMA-ALDRICH, T0891) blocking the potassium ion channels (KATP channels) in fibroblasts constituting the corium of scalp to inhibit cell proliferation and then opening the potassium ion channels (KATP channels) to resume the cell proliferation. In order to evaluate the function of the composition of the present invention as a KATP channel opener, the present invention uses a mouse embryonic fibroblast cell line, NIH3T3, as fibroblasts. The cell line is obtained by naturally immortalizing a fibroblast cell line isolated from an NIH Swiss mouse embryo with 3T3 protocol. The cell line is cultured with DMEM (Dulbecco's modified eagle's medium, Gibco BRL, Gaithersburg, Md., U.S.A.) containing 10% FBS (Fetal Bovine Serum) in an incubator under the conditions of 5% CO2 and 37° C. for 24 hours.

[5] = test system: DP6 (rat immortalized dermal papilla cell) line; test: Proliferation of hair follicle dermal papilla cells (WST-1); format: cell-based; settings: 24 hours, not treated control = 100
Text: The keratin protein constituting hair is produced by the keratinocytes in the hair roots, and the keratinocytes are differentiated from the hair papilla cells. To evaluate the composition of the present invention in regards to the effect to enhance the activity of hair papilla cells, the present invention uses DP6 (rat immortalized dermal papilla cell) line (Wendy Filsell, Journal of Cell Science 107, 1761-1772 (1994)). The hair papilla cells used in the present invention are a cell line isolated from the hair roots of male PVG rats by the microdissection method and cultured with DMEM (Dulbecco's modified eagle's medium, Gibco BRL, Gaithersburg, Md., U.S.A.) containing 10% FBS (Fetal Bovine Serum) in an incubator under the conditions of 5% CO2 and 37° C. for 24 hours. DP6 is put in the 96-well plate, cultured in an incubator at 37° C. for 24 hours and treated with the ginsenoside F2 of the present invention independently at a concentration of 5 ppm, 10 ppm, or 20 ppm. 24 hours after the treatment, the cell proliferation ability is measured using a WST-1 kit (Roche).

[6] = 2.5 ppm after 2.5 mM tolbutamide
[7] = 10 ppm after 2.5 mM tolbutamide

T1 sequence (P00772 27-266): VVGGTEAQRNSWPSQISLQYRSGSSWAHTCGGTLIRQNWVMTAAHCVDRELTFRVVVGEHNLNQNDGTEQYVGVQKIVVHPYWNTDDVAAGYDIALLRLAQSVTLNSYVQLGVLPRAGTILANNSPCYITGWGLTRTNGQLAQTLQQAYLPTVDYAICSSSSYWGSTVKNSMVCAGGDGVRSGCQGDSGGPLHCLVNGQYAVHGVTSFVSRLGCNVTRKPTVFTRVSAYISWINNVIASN

| SMILES | Melanogenesis inhibition rate (%) [1] [%] | Inhibition rate (%) (elastase) [2] | Amount of melanin (%) with respect to control [3] [%] | Cell proliferation ability (%) [4, 6] [%] | Cell proliferation ability (%) ([4]; 5 ppm after 2.5 mM tolbutamide) | Cell proliferation ability (%) [4, 7] [%] | Cell proliferation ability (%) ([5]; 5 ppm) | Cell proliferation ability (%) ([5]; 10 ppm) | Cell proliferation ability (%) ([5]; 20 ppm) |
| --- | --- | --- | --- | --- | --- | --- | --- | --- | --- |
| CC(C)=CCC[C@](C)(O[C@@H]1O[C@H](CO)[C@@H](O)[C@H](O)[C@H]1O)[C@H]1CC[C@]2(C)[C@@H]1[C@H](O)C[C@@H]1[C@@]3(C)CC[C@H](O[C@@H]4O[C@H](CO)[C@@H](O)[C@H](O)[C@H]4O)C(C)(C)[C@@H]3CC[C@]12C [Ginsenoside F2, ginsenoside F2] | 72 | 78 | 110.8 | 115 | 120 | 131 | 116 | 122 | 138 |
| CC(C)=CCC[C@](C)(O[C@@H]1O[C@H](CO[C@@H]2O[C@H](CO)[C@@H](O)[C@H](O)[C@H]2O)[C@@H](O)[C@H](O)[C@H]1O)[C@H]1CC[C@]2(C)[C@@H]1[C@H](O)C[C@@H]1[C@@]3(C)CC[C@H](O[C@@H]4O[C@H](CO)[C@@H](O)[C@H](O)[C@H]4O[C@@H]4O[C@H](CO)[C@@H](O)[C@H](O)[C@H]4O)C(C)(C)[C@@H]3CC[C@]12C [Ginsenoside Rb1] | 61 | 71 | 107.1 | 113 | 117 | 124 | 114 | 118 | 127 |
